Test results from patent US10716788B2, “Methods for treating MS using pyrimidine and pyridine compounds with BTK inhibitory activity” (Merck Patent GmbH, priority 2015, dated 2020).

Legend:
[1] = tested on: PLP139-151 induced EAE in female SJL mice; assay: PLP139-151 induced EAE in SJL mice (relapsing remitting mouse model of MS); format: in vivo; conditions: for relapse activity / relapses: FIG. 2 / FIG. 10
RA models = conditions: 3 mg/kg PO; cited from earlier work
[2] = prophylactic treatment from Day 0 post-induction, 0.3, 1.0, 3 mg/kg PO QD, FIG. 1 / FIG. 9
[3] = prophylactic treatment from Day 0 post-induction, 0.3, 1.0, 3 mg/kg PO QD
[4] = therapeutic dosing from Day 9 post-induction, 1.0, 3, 10 mg/kg PO QD, FIG. 15

| Compound | disease onset ([1]; prophylactic treatment from Day 0 post-induction, 0.3, 1.0, 3 mg/kg PO QD, FIG. 1) | disease severity (clinical score) [1, 2] | relapse activity / relapses [1, 3] | disease severity (clinical score) ([1]; therapeutic treatment, start at remission, 1, 3, 10 mg/kg PO QD, FIG. 3) | relapse activity ([1]; therapeutic treatment, start at remission, 1, 3, 10 mg/kg PO QD, FIG. 4) | number of relapses ([1]; dosing from Day 7 post-induction (before onset of EAE), 1.0 and 10 mg/kg PO QD, FIG. 21) | incidence of disease ([1]; prophylactic treatment from Day 0 post-induction, 0.3, 1.0, 3 mg/kg PO QD, FIG. 10) | disease severity (clinical score) ([1]; semi-therapeutic dosing from Day 7 post-induction (before onset of EAE), 1.0 and 10 mg/kg PO QD, FIG. 20) | disease severity (clinical score) ([1]; therapeutic dosing from Day 9 post-induction, 1.0, 3, 10 mg/kg PO QD, FIG. 14) | relapses [1, 4] | time to first relapse [1, 4] | disease severity (clinical score) ([1]; therapeutic dosing from Day 17 post-induction, 1.0 and 10 mg/kg PO QD, FIG. 18) | number of relapses ([1]; therapeutic dosing from Day 17 post-induction, 1.0 and 10 mg/kg PO QD, FIG. 19) | efficacy on RA models (RA models) |
| --- | --- | --- | --- | --- | --- | --- | --- | --- | --- | --- | --- | --- | --- | --- |
| C=CC(=O)N1CCC(CNc2ncnc(N)c2-c2ccc(Oc3ccccc3)cc2)CC1 [Compound (1), 1-(4-(((6-amino-5-(4-phenoxyphenyl)pyrimidin-4-yl)amino)methyl)piperidin-1-yl)prop-2-en-1-one] | delayed onset | reduced disease severity | reduced relapse activity | reduced disease severity | reduced relapse activity | – | – | – | – | – | – | – | – | – |
| C=CC(=O)N1CCC(F)(CNc2ncnc(N)c2-c2ccc(Oc3ccccc3)cc2)CC1 [Compound (2), 1-(4-(((6-amino-5-(4-phenoxyphenyl)pyrimidin-4-yl)amino)methyl)-4-fluoropiperidin-1-yl)prop-2-en-1-one] | – | significantly decreases disease severity | decreased | – | – | reduced the number of relapses | decreased incidence of disease | reduced disease severity | reduced disease severity | decreased relapses | prolonged time to first relapse | reduced disease severity | reduced the number of relapses | efficacious |
